Experimental data: ChEMBL document CHEMBL3044921, “Synthesis, characterization, and SAR studies of new (1H-indol-3-yl)alkyl-3-(1H-indol-3-yl)propanamide derivatives as possible antimicrobial and antitubercular agents” (2013)
Values after ≈ are worked out from the molar mass of the structure shown.

Experiments:
[1] = system: Escherichia coli; assay: Antibacterial activity against Escherichia coli […] assessed as growth inhibition after 16 to 18 hr by serial plate dilution method; format: functional
[2] = system: Mycobacterium tuberculosis; assay: Antitubercular activity against Mycobacterium tuberculosis H37Rv ATCC 27294 assessed as growth inhibition at 1 to 100 ug/mL after 7 days by resazurin reduction test; format: functional; details: for MIC: Mycobacterium tuberculosis, H37Rv ATCC 27294, 168 h
[3] = system: Escherichia coli; format: functional, ATCC 24922
Description: Antibacterial activity against Escherichia coli ATCC 24922 assessed as growth inhibition at 1.56 to 25 ug/ml after 3 to 4 days by agar well diffusion method

[4] = system: Staphylococcus aureus; format: functional, ATCC 25923
Description: Antibacterial activity against Staphylococcus aureus ATCC 25923 assessed as growth inhibition at 1.56 to 25 ug/ml after 3 to 4 days by agar well diffusion method

[5] = system: Trichophyton mentagrophytes; assay: Antifungal activity against Trichophyton mentagrophytes assessed as growth inhibition at […] to […] ug/ml after 3 to 4 days by agar well diffusion method; format: functional
[6] = system: Mycolicibacterium fortuitum; assay: Antitubercular activity against Mycobacterium fortuitum ATCC 19542 assessed as growth inhibition at 1 to 100 ug/mL after 7 days by resazurin reduction test; format: functional; details: ATCC 19542, 168 h
[7] = system: Aspergillus flavus; assay: Antifungal activity against Aspergillus flavus NCIM 524 assessed as growth inhibition at […] to […] ug/ml after 3 to 4 days by agar well diffusion method; format: functional
[8] = system: Klebsiella pneumoniae; format: functional
Description: Antibacterial activity against Klebsiella pneumoniae assessed as growth inhibition at 1.56 to 25 ug/ml after 3 to 4 days by agar well diffusion method

[9] = system: Talaromyces marneffei; assay: Antifungal activity against Talaromyces marneffei assessed as growth inhibition at […] to […] ug/ml after 3 to 4 days by agar well diffusion method; format: functional
[10] = system: Staphylococcus aureus; assay: Antibacterial activity against Staphylococcus aureus ATCC 25923 assessed as growth inhibition after 16 to 18 hr by serial plate dilution method; format: functional
[11] = system: Mycobacterium tuberculosis; assay: Antitubercular activity against Mycobacterium tuberculosis H37Rv ATCC 27294 assessed as growth inhibition at 0.3125 to 5 ug/mL after 7 days by resazurin reduction test; format: functional; details: H37Rv ATCC 27294, 168 h
[12] = system: Aspergillus flavus; assay: Antifungal activity against Aspergillus flavus NCIM 524 assessed as growth inhibition after 3 to 4 days by serial plate dilution method; format: functional
[13] = system: Trichophyton mentagrophytes; assay: Antifungal activity against Trichophyton mentagrophytes assessed as growth inhibition after 3 to 4 days by serial plate dilution method; format: functional
[14] = system: Aspergillus fumigatus; assay: Antifungal activity against Aspergillus fumigatus NCIM 902 assessed as growth inhibition after 3 to 4 days by serial plate dilution method; format: functional
[15] = system: Candida albicans; assay: Antifungal activity against Candida albicans assessed as growth inhibition at […] to […] ug/ml after 3 to 4 days by agar well diffusion method; format: functional
[16] = system: Streptococcus pyogenes; assay: Antibacterial activity against Streptococcus pyogenes assessed as growth inhibition after 16 to 18 hr by serial plate dilution method; format: functional
[17] = system: Candida albicans; assay: Antifungal activity against Candida albicans assessed as growth inhibition after 3 to 4 days by serial plate dilution method; format: functional
[18] = system: Klebsiella pneumoniae; assay: Antibacterial activity against Klebsiella pneumoniae assessed as growth inhibition after 16 to 18 hr by serial plate dilution method; format: functional
[19] = system: Talaromyces marneffei; assay: Antifungal activity against Talaromyces marneffei assessed as growth inhibition after 3 to 4 days by serial plate dilution method; format: functional
[20] = system: Mycolicibacterium fortuitum; assay: Antitubercular activity against Mycobacterium fortuitum ATCC 19542 assessed as growth inhibition at 0.3125 to 5 ug/mL after 7 days by resazurin reduction test; format: functional; details: ATCC 19542, 168 h
[21] = system: Mycolicibacterium smegmatis; assay: Antitubercular activity against Mycobacterium smegmatis ATCC 19420 assessed as growth inhibition at 0.3125 to 5 ug/mL after 7 days by resazurin reduction test; format: functional; details: ATCC 19420, 168 h
[22] = system: Aspergillus fumigatus; assay: Antifungal activity against Aspergillus fumigatus NCIM 902 assessed as growth inhibition at […] to […] ug/ml after 3 to 4 days by agar well diffusion method; format: functional
[23] = system: Pseudomonas aeruginosa; format: functional, ATCC 27853
Description: Antibacterial activity against Pseudomonas aeruginosa ATCC 27853 assessed as growth inhibition at 1.56 to 25 ug/ml after 3 to 4 days by agar well diffusion method

[24] = system: Pseudomonas aeruginosa; assay: Antibacterial activity against Pseudomonas aeruginosa ATCC 27853 assessed as growth inhibition after 16 to 18 hr by serial plate dilution method; format: functional
[25] = system: Streptococcus pyogenes; format: functional
Description: Antibacterial activity against Streptococcus pyogenes assessed as growth inhibition at 1.56 to 25 ug/ml after 3 to 4 days by agar well diffusion method

[26] = system: Mycolicibacterium smegmatis; assay: Antitubercular activity against Mycobacterium smegmatis ATCC 19420 assessed as growth inhibition at 1 to 100 ug/mL after 7 days by resazurin reduction test; format: functional; details: ATCC 19420, 168 h

SMILES | MIC [1] [µg/mL] | growth inhibition (GI) [2] [%] | MIC [2] [µg/mL] | diameter of the inhibition zone (DIZ) [3] [mm] | diameter of the inhibition zone (DIZ) [4] [mm] | diameter of the inhibition zone (DIZ) [5] [mm] | MIC [6] [µg/mL] | diameter of the inhibition zone (DIZ) [7] [mm] | diameter of the inhibition zone (DIZ) [8] [mm] | diameter of the inhibition zone (DIZ) [9] [mm] | MIC [10] [µg/mL] | MIC [11] [µg/mL] | MIC [12] [µg/mL] | MIC [13] [µg/mL] | MIC [14] [µg/mL] | diameter of the inhibition zone (DIZ) [15] [mm] | MIC [16] [µg/mL] | MIC [17] [µg/mL] | MIC [21] [µg/mL] | MIC [26] [µg/mL] | further results
Cc1[nH]c2ccc(OC(F)(F)F)cc2c1CNC(=O)CCc1c[nH]c2ccc(Cl)cc12 | 12.5 (≈ 27.8 µM) | 95 | 1 (≈ 2.22 µM) | 11 | 16 | <10 | 10 (≈ 22.2 µM) | 16 | <10 | 16 | 6.25 (≈ 13.9 µM) | 0.625 (≈ 1.39 µM) | 6.25 (≈ 13.9 µM) | 25 (≈ 55.6 µM) | 25 (≈ 55.6 µM) | <10 | 6.25 (≈ 13.9 µM) | 25 (≈ 55.6 µM) | 10 (≈ 22.2 µM) | 10 (≈ 22.2 µM) | MIC [18]: 25 µg/mL (≈ 55.6 µM); MIC [19]: 6.25 µg/mL (≈ 13.9 µM); MIC [20]: 10 µg/mL (≈ 22.2 µM); diameter of the inhibition zone (DIZ) [22]: <10 mm; diameter of the inhibition zone (DIZ) [23]: 16 mm; MIC [24]: 6.25 µg/mL (≈ 13.9 µM); diameter of the inhibition zone (DIZ) [25]: 16 mm
Cn1cc(CCC(=O)NCc2c[nH]c3ccc(Cl)cc23)c2cc(Cl)ccc21 | 6.25 (≈ 15.6 µM) | 95 | 1 (≈ 2.5 µM) | 16 | 16 | 16 | 10 (≈ 25 µM) | 16 | 16 | 16 | 6.25 (≈ 15.6 µM) | 0.625 (≈ 1.56 µM) | 6.25 (≈ 15.6 µM) | 6.25 (≈ 15.6 µM) | 6.25 (≈ 15.6 µM) | 16 | 6.25 (≈ 15.6 µM) | 6.25 (≈ 15.6 µM) | 10 (≈ 25 µM) | 10 (≈ 25 µM) | MIC [18]: 6.25 µg/mL (≈ 15.6 µM); MIC [19]: 6.25 µg/mL (≈ 15.6 µM); MIC [20]: 10 µg/mL (≈ 25 µM); diameter of the inhibition zone (DIZ) [22]: 16 mm; diameter of the inhibition zone (DIZ) [23]: <10 mm; MIC [24]: 25 µg/mL (≈ 62.5 µM); diameter of the inhibition zone (DIZ) [25]: 16 mm
O=C(CCc1c[nH]c2ccc(Cl)cc12)NCc1c[nH]c2ccc(OC(F)(F)F)cc12 | 6.25 (≈ 14.3 µM) | 90 | 1 (≈ 2.29 µM) | 16 | 16 | 16 | 10 (≈ 22.9 µM) | 16 | 16 | 16 | 6.25 (≈ 14.3 µM) | 1.25 (≈ 2.87 µM) | 6.25 (≈ 14.3 µM) | 6.25 (≈ 14.3 µM) | 6.25 (≈ 14.3 µM) | 16 | 12.5 (≈ 28.7 µM) | 6.25 (≈ 14.3 µM) | 1.25 (≈ 2.87 µM) | 1 (≈ 2.29 µM) | MIC [18]: 6.25 µg/mL (≈ 14.3 µM); MIC [19]: 6.25 µg/mL (≈ 14.3 µM); MIC [20]: 1.25 µg/mL (≈ 2.87 µM); diameter of the inhibition zone (DIZ) [22]: 16 mm; diameter of the inhibition zone (DIZ) [23]: 16 mm; MIC [24]: 6.25 µg/mL (≈ 14.3 µM); diameter of the inhibition zone (DIZ) [25]: 11 mm
Cn1cc(CCC(=O)NCc2c[nH]c3ccc(OC(F)(F)F)cc23)c2cc(Cl)ccc21 | 6.25 (≈ 13.9 µM) | 95 | 1 (≈ 2.22 µM) | 16 | 16 | <10 | 10 (≈ 22.2 µM) | 16 | 16 | 11 | 6.25 (≈ 13.9 µM) | 0.625 (≈ 1.39 µM) | 6.25 (≈ 13.9 µM) | 25 (≈ 55.6 µM) | 6.25 (≈ 13.9 µM) | 11 | 6.25 (≈ 13.9 µM) | 12.5 (≈ 27.8 µM) | 1.25 (≈ 2.78 µM) | 1 (≈ 2.22 µM) | MIC [18]: 6.25 µg/mL (≈ 13.9 µM); MIC [19]: 12.5 µg/mL (≈ 27.8 µM); MIC [20]: 10 µg/mL (≈ 22.2 µM); diameter of the inhibition zone (DIZ) [22]: 16 mm; diameter of the inhibition zone (DIZ) [23]: 16 mm; MIC [24]: 6.25 µg/mL (≈ 13.9 µM); diameter of the inhibition zone (DIZ) [25]: 16 mm
Cn1cc(CCC(=O)NCCCc2c[nH]c3ccc(Cl)cc23)c2cc(Cl)ccc21 | 6.25 (≈ 14.6 µM) | <90 | 10 (≈ 23.3 µM) | 16 | 16 | 11 | > 100 | <10 | 16 | <10 | 6.25 (≈ 14.6 µM) | 2.5 (≈ 5.84 µM) | 25 (≈ 58.4 µM) | 12.5 (≈ 29.2 µM) | 25 (≈ 58.4 µM) | 16 | 12.5 (≈ 29.2 µM) | 6.25 (≈ 14.6 µM) | 2.5 (≈ 5.84 µM) | 10 (≈ 23.3 µM) | MIC [18]: 6.25 µg/mL (≈ 14.6 µM); MIC [19]: 25 µg/mL (≈ 58.4 µM); diameter of the inhibition zone (DIZ) [22]: <10 mm; diameter of the inhibition zone (DIZ) [23]: 16 mm; MIC [24]: 6.25 µg/mL (≈ 14.6 µM); diameter of the inhibition zone (DIZ) [25]: 11 mm
Cn1cc(CCCNC(=O)CCc2cn(C)c3ccc(Cl)cc23)c2cc(Cl)ccc21 | 25 (≈ 56.5 µM) | <90 | 10 (≈ 22.6 µM) | <10 | 11 | 11 | > 100 | 11 | <10 | <10 | 12.5 (≈ 28.3 µM) | 5 (≈ 11.3 µM) | 12.5 (≈ 28.3 µM) | 12.5 (≈ 28.3 µM) | 12.5 (≈ 28.3 µM) | <10 | 25 (≈ 56.5 µM) | 25 (≈ 56.5 µM) | 10 (≈ 22.6 µM) | 10 (≈ 22.6 µM) | MIC [18]: 25 µg/mL (≈ 56.5 µM); MIC [19]: 25 µg/mL (≈ 56.5 µM); diameter of the inhibition zone (DIZ) [22]: 11 mm; diameter of the inhibition zone (DIZ) [23]: <10 mm; MIC [24]: 25 µg/mL (≈ 56.5 µM); diameter of the inhibition zone (DIZ) [25]: <10 mm
Cn1cc(CCC(=O)NCCCc2c[nH]c3ccc(OC(F)(F)F)cc23)c2cc(Cl)ccc21 | 12.5 (≈ 26.2 µM) | 95 | 1 (≈ 2.09 µM) | 11 | 16 | <10 | 10 (≈ 20.9 µM) | 11 | 11 | <10 | 6.25 (≈ 13.1 µM) | 0.625 (≈ 1.31 µM) | 12.5 (≈ 26.2 µM) | 25 (≈ 52.3 µM) | 12.5 (≈ 26.2 µM) | 16 | 6.25 (≈ 13.1 µM) | 6.25 (≈ 13.1 µM) | 10 (≈ 20.9 µM) | 10 (≈ 20.9 µM) | MIC [18]: 12.5 µg/mL (≈ 26.2 µM); MIC [19]: 25 µg/mL (≈ 52.3 µM); MIC [20]: 10 µg/mL (≈ 20.9 µM); diameter of the inhibition zone (DIZ) [22]: 11 mm; diameter of the inhibition zone (DIZ) [23]: 11 mm; MIC [24]: 12.5 µg/mL (≈ 26.2 µM); diameter of the inhibition zone (DIZ) [25]: 16 mm
CO[C@H]1/C=C/O[C@@]2(C)Oc3c(C)c(O)c4c(O)c(c(/C=N/N5CCN(C)CC5)c(O)c4c3C2=O)NC(=O)/C(C)=C\C=C\[C@H](C)[C@H](O)[C@@H](C)[C@@H](O)[C@@H](C)[C@H](OC(C)=O)[C@@H]1C [RIFAMPIN] | – | 95 | 0.5 (≈ 0.608 µM) | – | – | – | 1.5 (≈ 1.82 µM) | – | – | – | – | 0.5 (≈ 0.608 µM) | – | – | – | – | – | – | 1.5 (≈ 1.82 µM) | 1.5 (≈ 1.82 µM) | MIC [20]: 1.5 µg/mL (≈ 1.82 µM)
NNC(=O)c1ccncc1 [ISONIAZID] | – | 95 | 0.7 (≈ 5.1 µM) | – | – | – | 12.5 (≈ 91.1 µM) | – | – | – | – | 0.7 (≈ 5.1 µM) | – | – | – | – | – | – | 50 (≈ 365 µM) | 50 (≈ 365 µM) | MIC [20]: 12.5 µg/mL (≈ 91.1 µM)
